# Legend:
# [1] = test system: encorafenib refractory-BRAF^V600E RKO and WiDr CDX models; assay: In-vivo assay, tumor growth in xenograft (CDX) models; parameters: species or system Female Balb/c nude mice; conditions: compound 1 combined with encorafenib, oral, FIG. 2A, 2B
# Experimental: The vehicle/control article, 0.5% Methyl Cellulose & 0.1% Tween 80 or 100 mM acetic acid in deionized water with pH adjustment to 4.8-5.0, was prepared and stored under ambient conditions throughout the study period.
# The test article compound 1 was freshly prepared in vehicle of 0.5% Methyl Cellulose & 0.1% Tween 80 weekly and stored under ambient conditions. The combination agent, encorafenib, was freshly prepared in vehicle of 0.5% CMC and 0.5% Tween 80 weekly and stored at 2-8° C.
# Female Balb/c nude mice were purchased from the Beijing Vital River Laboratory Animal Technology Co., Ltd. Mice were hosted at special pathogen-free (SPF) environment of vivarium facility and acclimated to their new environment for at least 3 days prior to initiation of any experiments. Mice were between 6-8 weeks of age at the time of implantation.
# RKO is a human CRC tumor cell line that harbors a BRAF^V600E mutation. The RKO cell line was purchased from the American Type Culture Collection (ATCC® CRL-2577™). RKO cells were cultured in medium containing EMEM plus 10% Fetal Bovine Serum (FBS) supplemented with non-essential amino acids at 37° C. in an atmosphere of 5% CO2 in air. RKO cells in 200 μL cell suspensions containing 2×10^6 cells mixed with 50% Matrigel were implanted into mice subcutaneously. […]
# [2] = test system: cell lines harboring a BRAF^V600E mutation (RKO, HT-29, WiDr, MDST8, LIM2405 cells); assay: In-vitro 3D cell viability assay (CellTiter-Glo 3D), dilution matrix of compound 1 versus encorafenib, BLISS model; type: cell-based, human; conditions: compound 1 combined with encorafenib, 5 days post-treatment, FIG. 1A-1E
# Experimental: Cells were plated at a density of 1,000 (RKO, HT-29, WiDr, MDST8) or 5,000 (LIM2405) cells per well in a 96-well plate (Corning #3903). Cells were allowed to adhere overnight, and compound was added in a matrix format using a HP Tecan D300e digital dispenser (Switzerland). Compound 1 was added in a 1:3 dilution series (8-point dose response) from bottom to top of plate (rows B-H) and encorafenib was added in a 1:3 dilution series ([…] dose response) from right to left (columns 2-11). Final DMSO concentration was normalized across the plate. Cell viability was assessed 5-days post-treatment using Promega CellTiter-Glo 3D Cell Viability Assay reagent (#G9683) according to manufacturer's protocol.
# RKO cells (FIG. 1A), HT-29 cells (FIG. 1B), WiDr cells (FIG. 1C), MDST8 cells (FIG. 1D), and LIM2405 (FIG. 1E) were treated with a dilution matrix of compound 1 versus encorafenib in 3D cell viability assays. Cell viability, as expressed as a percentage of viable cells relative to vehicle treated control, is shown in the matrix.
# [3] = test system: RAS/MAPK pathway (P-RSK, P-ERK) in BRAF V600E mutant CRC cell lines RKO and HT-29; assay: Western blot of phosphorylation of RSK (P-RSK) and ERK (P-ERK), encorafenib in combination with MEK and ERK inhibitors; type: cell-based, human; conditions: plus BRAF inhibitor encorafenib; incubation up to 72 hours; Compound 1 at one-tenth the concentration used for the MEK and other ERK inhibitors; FIG. 3A-3D
# Text: Treatment of two BRAF V600E mutant CRC cell lines, RKO and HT-29, with encorafenib in combination with the MEK inhibitor binimetinib, the ERK inhibitor Compound 1, the ERK inhibitor LY3214996, and the ERK inhibitor ravoxertinib. The Western blot gels depict phosphorylation of RSK (P-RSK) and ERK (P-ERK). Higher levels of phosphorylation are depicted by higher (i.e., darker) band intensity. Total GAPDH protein (GAPDH) serves as a loading control. ERK signaling activity is represented by the phosphorylation state of RSK (P-RSK), which is a downstream target of ERK. The column values indicate the duration of compound incubation of up to 72 hours. FIG. 3A-FIG. 3D.
Compound,combination benefit in vivo (tumor growth curves) [1],"combination benefit in vitro (cell viability, BLISS model) [2]","RAS/MAPK pathway feedback reactivation (P-RSK, P-ERK) [3]"
"Cc1cnc(NC2CCOCC2)nc1-n1cnc(C(=O)N[C@H](CN)c2cc(F)cc(Cl)c2)c1 [Compound 1, (S)-N-(2-amino-1-(3-chloro-5-fluorophenyl)ethyl)-1-(5-methyl-2-((tetrahydro-2H-pyran-4-yl)amino)pyrimidin-4-yl)-1H-imidazole-4-carboxamide]",combination benefit,combination benefit,blocked the RAS/MAPK pathway feedback reactivation
"COC(=O)N[C@@H](C)CNc1nccc(-c2cn(C(C)C)nc2-c2cc(Cl)cc(NS(C)(=O)=O)c2F)n1 [encorafenib, Encorafenib, reference compound]",combination benefit,combination benefit,–

# From US20240316046A1, “ERK1/2 INHIBITOR COMBINATION THERAPY” (Asana Biosciences, LLC, priority 2021, published 2024)
